pIC50, pKi: −log10 of the molar value.
How the values were obtained:
[1] = tested on: Herpes Simplex Virus (HSV); experiment: HSV plaque assay in VERO cells; type: cell-based
Description: HAL was tested for its anti-viral activity against a variety of infectious viruses in vitro. Effectiveness against Herpes Simplex Virus (HSV) was assayed using the following method. Confluent VERO cells from a T-175 flask are tyrpsinized and split into as many T-25 flasks as the experiment requires. The cells are grown in RPMI-1640 with 10% newborn calf serum-heat inactivated, and L-glutamine. After cells have grown to confluence remove the media and add 0.5 ml of diluted virus (make a series of 1:5 dilution). Dilution of virus is prepared in RPMI-1640 with 2% NCS. The cells are then incubated for 1 hour at 37° C. and then 5 ml of RPMI-1640 with 2% NCS with or without the test compounds is added and incubation is allowed to continue for 1 day. After 24 hours the flasks are sealed with parafilm and frozen at −70° C. The cells are then allowed to thaw at RT to lyse dead intact cells, releasing virus. The viral suspension is then centrifuged to remove cell debris. The viral dilution that caused complete lysis will be used in the plaque assay. The plaque assay is set up by trypsinizing cells from a T-75 and resuspending the cells in RPMI-1640 with 10% NCS and poured into 6-well plate at 2 ml/well. The cells are incubated overnight at 37° C. The media is then removed by suction and 0.2 ml of the viral dilution is added and allowed to incubate for one hour. During this hour the agar is prepared and stored at 41° C. to prevent hardening. The agar concentrations are as follows: ½ vol. 2×BME (Gibco), 2% Pen/Strep, 2% NCS, and 1% agar. After the hour incubation 2 ml of the BME/agar is carefully added to the wells, so as not to disturb the cell monolayer. The plate is left at RT for twenty to thirty minutes to allow the agar to harden, and then the cells are incubated for 48 hours at 37° C. The cells are then stained used BME/agar containing neutral red. The BME/agar is prepared as before with the addition of neutral red stain (Gibco) to a final concentration of 5%. […] Plaques are then counted and the cells fixed for a permanent record.

[2] = tested on: Respiratory Syncytial Virus (RSV); experiment: RSV plaque assay in Hep2 cells; type: cell-based; details: L-histidinol 3 mM
Description: Another successful study has been with Respiratory Syncytial Virus (RSV). RSV is another highly infectious disease causing agent. It causes lower respiratory-tract infections such as bronchitis and pneumonia in infancy and early childhood, with nearly 50% of infants suffering from an RSV infection during their first winter. Experiments were performed in tissue culture using the RSV Plaque Assay. The RSV plaque assay is performed similarly to the HSV assay. When performing the RSV assay Hep2 cells are used to propagate the RSV and the cells are grown in EMEM media with 2% FBS, L-glutamine and Antibiotic-Antimycotic. The virus stock is diluted in the medium and added to each well with or without the desired testing compound. The plates are incubated for 2 hours at 37° C. and the virus is removed. 0.5% agarose is added to the media and incubated for 5 days at 37° C. The plates are then fixed with 10% formalin and stained with crystal violet.

[3] = target: T1, Streptomyces griseus histidine ammonia lyase (Streptomyces griseus, UniProt P24221); experiment: Inhibition of Streptomyces griseus histidine ammonia lyase; type: biochemical; details: equal molar concentration to histidine
Source text: HAL has a significant advantage over other histidine ammonia lyases in that it is relatively resistant to inhibition by L-histidinol. L-histidinol is a histidine analog. Because L-histidinol acts as a competitive inhibitor it must be present in high concentrations to have an effect on histidine dependent reactions. Using HAL to reduce the overall histidine pool would therefore greatly increase the effectiveness of L-histidinol. […] Because the Corynebacteriaceae histidine ammonia lyase (HAL) is not inhibited by L-histidinol at therapeutic L-histidinol levels it has a great advantage over other histidine ammonia lyases. […] However, with HAL 20% of activity still is retained when L-histidinol is present at 10 times the concentration of L-histidine.

[4] = target: histidine ammonia lyase isolated from Achromobacter liquidum; details: Shibatani et al. 1975; cited from earlier work
[5] = target: Corynebacteriaceae histidine ammonia lyase (HAL) (Glutamicibacter halophytocola, UniProt A0A5B8IKQ6, DEL117-117/DEL409-409/N172D/R434P/T116S); experiment: biochemical; type: biochemical, bacterium of the family Corynebacteriaceae; details: for pIC50: inhibition not complete, read-out: concentration required to reduce the activity by half
[6] = target: T1, Streptomyces griseus histidine ammonia lyase; details: Wu et al.; cited from earlier work

Sequence of Corynebacteriaceae histidine ammonia lyase (HAL) (A0A5B8IKQ6 entry or part of it T116S/DEL117-117/N172D/DEL409-409/R434P): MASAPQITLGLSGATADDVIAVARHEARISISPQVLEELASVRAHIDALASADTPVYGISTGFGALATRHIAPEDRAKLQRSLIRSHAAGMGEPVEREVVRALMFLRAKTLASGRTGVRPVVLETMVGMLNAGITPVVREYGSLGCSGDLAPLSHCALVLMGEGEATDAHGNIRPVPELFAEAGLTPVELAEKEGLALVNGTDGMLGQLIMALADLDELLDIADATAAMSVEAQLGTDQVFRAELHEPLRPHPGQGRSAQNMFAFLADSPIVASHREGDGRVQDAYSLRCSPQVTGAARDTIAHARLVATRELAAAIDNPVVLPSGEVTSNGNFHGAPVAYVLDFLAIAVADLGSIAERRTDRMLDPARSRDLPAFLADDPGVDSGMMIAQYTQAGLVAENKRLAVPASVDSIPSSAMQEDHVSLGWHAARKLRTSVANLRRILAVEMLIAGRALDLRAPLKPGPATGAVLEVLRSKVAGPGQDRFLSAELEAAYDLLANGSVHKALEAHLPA
T1 sequence (P24221 whole entry): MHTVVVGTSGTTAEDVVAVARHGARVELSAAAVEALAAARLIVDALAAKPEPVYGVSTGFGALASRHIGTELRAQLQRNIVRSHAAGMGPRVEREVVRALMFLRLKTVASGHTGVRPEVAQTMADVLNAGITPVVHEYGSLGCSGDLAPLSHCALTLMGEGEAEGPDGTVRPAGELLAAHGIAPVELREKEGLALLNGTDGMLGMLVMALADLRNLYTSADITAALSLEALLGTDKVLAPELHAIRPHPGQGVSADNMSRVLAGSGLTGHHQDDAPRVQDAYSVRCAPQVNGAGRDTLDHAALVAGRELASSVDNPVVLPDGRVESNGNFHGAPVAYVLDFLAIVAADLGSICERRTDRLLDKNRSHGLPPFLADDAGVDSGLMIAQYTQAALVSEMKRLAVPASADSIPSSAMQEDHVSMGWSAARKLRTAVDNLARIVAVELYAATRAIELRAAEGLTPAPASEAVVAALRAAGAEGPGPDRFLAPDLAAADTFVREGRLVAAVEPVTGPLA

N[C@H](CO)Cc1c[nH]cn1 [L-histidinol]
inhibition of HSV ([1]; L-histidinol 0.1 mM): no inhibition
inhibition of HSV ([1]; L-histidinol 0.5 mM): no inhibition
inhibition of HSV ([1]; L-histidinol 1 mM): 5 fold
inhibition of RSV plaque numbers [2]: no inhibition
inhibition of the enzyme [3]: completely inhibit
pKi [4]: 2.34
pKi [5]: 1.48 to 1.61
inhibition of HAL ([5]; therapeutic L-histidinol levels): not inhibited

O[C@@H](CS)[C@@H](O)CS [DTT]
pIC50 [5]: 1.82

O=C(O)CN(CCN(CC(=O)O)CC(=O)O)CC(=O)O [EDTA]
inhibition of the HAL reaction ([5]; concentrations as low as 1 mM): completely inhibit
reversibility of the inhibition ([5]; presence of Mn^2+ at 1×10^5 M): reversible

L-histidinol phosphate
pKi [6]: 3.57

N[C@@H](CCC(=O)N[C@@H](CS)C(=O)NCC(=O)O)C(=O)O [reduced glutathione]
pIC50 [5]: 1.82

— US6939541B2, “Cloning, overexpression and therapeutic use of bioactive histidine ammonia lyase” (priority 2000, dated 2005)
